We go through 12 compounds from patent EP0773292A1, “Immortalised embryonic hippocampal cells and their use” (BAYER AG, priority 1995, dated 1997).

Read-outs that look alike come from different tables or passages of the source.

Type in all cases: cell-based, murine
The subject of one assay is HC e/n XV.B cells. The assay is described as follows: Ca2+-imaging (Fura-2), rise in intracellular calcium. The procedure: (§1) Fluorescent Probe: Dynamic changes of intracellular calcium concentration were measured using the Fura-2 fluorescent probe (Roe et al. 1990, Cell Calcium 11:63-73). This fluorescent dye was chosen because of its selectivity, high quantum yield and extinction co-efficient. Fura-2 permeates the living cell as a acetoxymethylester and becomes trapped within the cell after hydrolysis by intracellular esterases. The calcium-sensitive free acid of Fura-2 is able to bind to calcium ions inside the cell. Fura-2 has an excitation maximum at 380 nm and the Fura2/calcium complex peaks at 340 nm. A change in intracellular calcium concentration was calculated by recording fluorescent video images at wavelengths of 340nm and 380nm excitation and 510nm emission and by dividing the grey values of the digitized video images of 380nm from 340nm.
(§2) Loading cells with Fura-2: A stock solution with 2mM Fura-2-acetoxymethylester in dimethylsulfoxide (DMSO) was diluted to 5-10 µM with serum free Minimal Essential Medium (MEM, Gibco) containing 1.5% bovine serum albumin and 5 mM calcium chloride. The cells were incubated in a Falcon 96 well plate for 45-60 minutes at 37°C. Subsequently the cells were washed twice in N-(2-Hydroxyethyl)piperazine-N'-(2-ethanesulfonic acid) (HEPES, 5mM) buffered Tyrode solution (HEPES buffered salt solution containing 130 mM NaCl, 5 mM KCl, 2 mM CaCl2, 1 mM MgCl2, 5mM NaHCO3, 11 mM Glucose).
(§3) Imaging procedure: 100 µl of Tyrode buffer was added to the plate wells and the cells were sequencially exposed to light at 340 nm and 380 nm under a fluorescent microscope (Nikon Diaphot). The exposition time was 100 ms. A series of video images at 3 second intervals was acquired and stored as digitised pictures in the image boards of an image analysis computer (Leica, Quantimet 570). After the acquisition of 8 images the test substances were applied. The grey levels of the cells, which correspond to the fluorescence intensity, were measured in the recorded video images. The ratio was determined by dividing the measured grey levels of the "380 nm images" by the grey levels of the "340 nm images" either from averaged images or from individual cells. For averaged results, the grey levels were measured over the whole images.
(§4) The cells were loaded with Fura 2/AM between day 3 and 7 in culture. A number of agonists were tested for their ability to activate specific receptors on the cell surface which leads to a rise in intracellular calcium. The rise in calcium concentration in the cytoplasm can occur after activation of specific calcium channels in the cell membrane, after activation of neurotransmitter receptors directly coupled to ion channels that are permeable to calcium ions (i.e. NMDA or AMPA type glutamate receptors), or by activation of receptors, which propagate the signal through the activation of specific G-proteins, which regulate the activity of different enzymes in the interior of the cell (Connor, Cell Calcium 14 (1993), 185-200; Crouch and Hendry, Medical Res. Rev. 13 (1993), 105-123). The activation of phospholipase C generates the second messengers diacylglycerol and inositoltriphosphate from phospholipids in the cell membrane. The binding of inositoltriphosphate to receptors localised on internal vesicles which store calcium ions leads to a transient rise in the concentration of calcium ions in the cytoplasm (Berridge, M.J. 1993, Nature 361: 315-325).
A general note: A change in cytosolic calcium serves as a functional read-out for many receptors and channels.

The next assay relates to HNMMCV11.2.0. The assay is described as above. The note with it: HNMMCV11.2.0; glutamate 10µM to 10 mM, AMPA, kainic acid, serotonine, dopamine, carbachol up to 1mM, NMDA up to 500µM. The procedure: as §1, §2, §3, §4
For a further assay, the system named is HNMMCV13.1.E. The assay is described as above. The note with it: HNMMCV13.1.E; glutamate 10µM to 10 mM, AMPA, kainic acid, serotonine, dopamine, carbachol up to 1mM, NMDA up to 500µM. The procedure: as §1, §2, §3, §4
The next assay concerns HNMMCV13.1.F. Described as above. The note with it: for transient rise in intracellular calcium concentration: HNMMCV13.1.F, glutamate 10µM to 10 mM, AMPA, kainic acid, serotonine, dopamine, carbachol up to 1mM, NMDA up to 500µM. The procedure:
as §1, §2, §3, §4

The test system of assay [1] is HNMMCV14.1.A. The assay is described as above. The settings on record: HNMMCV14.1.A; glutamate 10µM to 10 mM, AMPA, kainic acid, serotonine, dopamine, carbachol up to 1mM, NMDA up to 500µM. The procedure: as §1, §2, §3, §4
The subject of another assay is HC e/n XVB cells. In words: Electrophysiology: whole-cell patch-clamp, ligand-activated currents. The note with it: for ligand-activated currents: membrane potential clamped to -70mV; for ligand induced inward currents: differentiated HC e/n XVB cells, AMPA 100µM, NMDA, kainate, glutamate 1mM. The procedure:
(§5) Electrophysiological setup: Membrane currents were measured with the patch-clamp technique in the whole-cell recording configuration (Hamill et al. 1981, Pfluegers Arch. 391:85-100). Current signals were amplified with conventional electronics (EPC-9 amplifier, HEKA Elektronik GmbH, Lambrecht, Germany), filtered at 10kHz, and sampled at 5 kHz by an interface connected to an IBM AT-compatible computer system, which also served as a stimulus generator.
(§6) Solutions and electrodes: The standard bathing solution contained (in mM): Nacl 150, KCL 5, MgCl2 1.8, HEPES 5, and glucose 10. In some experiments an equimolar amount of NaCl was replaced by 5mM BaCl2. Recording pipettes had resistances about 5MΩ (Hilgenberg, Malsfeld, Germany). The pipettes contained (in mM): KCL 140, CaCl2 0.5, EGTA 5, MgCl2 2, and HEPES 10. The pH was adjusted to 7.4. In some experiments the pipette solution was designed to minimize the contribution of voltage-activated currents. In this case, investigating the ligand-activated currents, the pipette solution contained (in mM): CsCl 140, EGTA 10, and HEPES 10.
(§7) Ligands were dissolved in the extracellular saline solution and applied via an U-tube application system. To record ligand-induced currents, the membrane potential was clamped to -70mV. For measurements of voltage-activated currents, cells were held at -70mV and every second the membrane was stepped through a 50 msec. de- or hyperpolarising test pulse to a potential between -170 and +20 mV.
For orientation: The patch-clamp technique gives a direct electrical read-out from membranes.

Assay [2] deals with HNMMCV14.1.A. The description is as above. The settings on record: 14.1.A; membrane potential clamped to -70mV. The procedure: as §5, §6, §7
The test system of assay [3] is metabotropic glutamate receptor(s) (mGluR) expressed by HNMMCV14.1A cells. In words: Second messenger: phosphoinositide hydrolysis, accumulation of 3H-inositol phosphates. The procedure: Phosphoinositide hydrolysis was determined by measuring the accumulation of ^3H-inositol phosphates. The cells were plated in 48-well plates (Costar) at a density of 10000 cells per well and incubated for 4-5 days at 37°C, 7% CO2. Then the cells were labeled by incubation with 4 µCi of myo-2-^3H-inositol per ml medium (specific activity: […]: Amersham). After 24 h LiCl (10 mM final concentration) was added to the cells for 1 h. Agonists were then added at the concentrations indicated. The incubation was stopped after 1 h by replacing the medium with 200 µl ice-cold methanol. 400 µl of destilled water was added and the sample was directly applied to AG-1X8 ion exchange columns (AG-1X8 resin: BioRad). Free inositol and glycerophosphoryl-inositol were washed away with 16 ml destilled water followed by 10 ml 5 mM disodium-tetraborate, 60 mM sodium formate. Total ^3H-inositol phosphates (IP1, IP2, IP3) were eluted with 7 ml of 100 mM formic acid, 1 M ammonium formate. Radioactivity of the eluted ^3H-inositol phosphates was determined by liquid scintillation counting after addition of 13 ml liquid scintillation cocktail (Ultima Gold: Canberra Packard). Measurements were performed in triplicates for each experimental point. Untreated controls were set as 100% and the other values calculated in relation to this.
The columns were prepared as follows: 1 ml pipet tips were filled with one glass bead (Roth) per tip before adding 500 µl AG-1X8 resin. The resin was compressed with air and 270 µl seasand was applied. Until use they were stored at 4°C.

Setting [4] is: HC e/n XV.B cells, state of differentiation not given, up to 1mM.
Where [5] appears, read: differentiated HC e/n XV.B cells.
Where [6] appears, read: HNMMCV14.1A cells, result in words.

`Cc1onc(O)c1CC(N)C(=O)O` (stereo not shown) [AMPA, ∝-amino-3-hydroxy-5-methyl-4-isoxazol-propionic acid]: the “transient rise in intracellular calcium concentration” value is given as “did not result in a transient rise in intracellular calcium concentrations” with HC e/n XV.B cells (undifferentiated HC e/n XV.B cells, AMPA, kainate up to 1mM, NMDA up to 500µM); “did not result in a transient rise in intracellular calcium concentrations” in the assay with HNMMCV11.2.0; “did not result in a transient rise in intracellular calcium concentrations” with HNMMCV13.1.E; “did not result in a transient rise in intracellular calcium concentrations” in the assay on HNMMCV13.1.F; “did not result in a transient rise in intracellular calcium concentrations” in the assay on HNMMCV14.1.A [1]. For the same compound, in the assay with HC e/n XVB cells (XV. B/ - EGF (differentiated)), the ligand-activated currents result is “+ (+: 10-30% positive cells)”. The “ligand induced inward currents” value with HC e/n XVB cells is given as “evoked responses with different peak amplitudes”.

As to `CC(=O)OCC[N+](C)(C)C` [Acetylcholine, acetylcholine], the ligand-activated currents entry in the assay with HC e/n XVB cells (XV. B/ - EGF (differentiated)) is “-”; in the assay with HNMMCV14.1.A [2] it was “+ (+: 10-30% positive cells)”.

As for `N#Cc1cc2[nH]c(=O)c(=O)[nH]c2cc1[N+](=O)[O-]` [CNQX, 6-nitro-7-cyanochinoxalin-2,3-dione], in the assay on HNMMCV13.1.F (glutamate 100µM, CNQX 100µM, cell clone taken from Table 5 (13.1.F)), the “antagonism of the calcium signals recorded after application of glutamate” value is “not antagonised”.

As to `C[N+](C)(C)CCOC(N)=O` [Carbachol], the “transient rise in intracellular calcium concentration” value with HC e/n XV.B cells (setting [4]) is recorded as “reproducible signal”; in the assay with HNMMCV11.2.0 it was “not in any other cell line tested”; in the assay with HNMMCV13.1.E it was “not in any other cell line tested”; in the assay on HNMMCV13.1.F, “not in any other cell line tested”.

For `NCCc1ccc(O)c(O)c1` [Dopamine, dopamine], the “transient rise in intracellular calcium concentration” value with HC e/n XV.B cells (setting [4]), with HNMMCV11.2.0, in the assay with HNMMCV13.1.E, in the assay on HNMMCV13.1.F and in the assay on HNMMCV14.1.A [1] was “did not lead to a specific signal” in each case.

On to `NCCCC(=O)O` [GABA], for which the “reversal potential of the ligand-activated current” value with HC e/n XVB cells (HC e/n XVB cells, membrane stepped from -100 to +40) is “~+10 mV”. The ligand-activated currents entry is “+ (+: 10-30% positive cells)” in the assay with HC e/n XVB cells (XV. B (with EGF, undifferentiated)); “+++ (+++: 70-100% positive cells)” with HC e/n XVB cells (XV. B/ - EGF (differentiated)); “++ (++: 30-70% positive cells)” in the assay with HNMMCV14.1.A [2]. Besides, the “ligand induced inward currents” value with HC e/n XVB cells was “prominent resonses”.

Turning to `N[C@H](C(=O)O)[C@H]1C[C@@H]1C(=O)O` [L-CCG 1, L-carboxycyclopropylglycin], the “transient rise in intracellular calcium concentration” value with HC e/n XV.B cells (setting [5]) is “weak signals”; with HNMMCV11.2.0 it was “strong”; with HNMMCV13.1.E it was “strong”; with HNMMCV13.1.F, “strong”; in the assay on HNMMCV14.1.A [1] it was “strong”.

Consider `CN[C@H](CC(=O)O)C(=O)O` [NMDA, N-methyl-D-aspartate], for which, in the assay on HC e/n XVB cells (XV. B/ - EGF (differentiated)), the ligand-activated currents entry is reported as “++ (++: 30-70% positive cells)”.

On to `N[C@@H](Cn1oc(=O)[nH]c1=O)C(=O)O` [Quisqualate, quisqualate], for which, in assay [3] (HNMMCV14.1A cells), the “maximum responses (inositolphosphate accumulation) compared with glutamate” value (from here on “maximum responses … compared with glutamate”) is given as “slightly weaker”. The “effect on inositolphosphate accumulation” value in assay [3] (setting [6]) was “concentration dependent increase”.

`NCCc1c[nH]c2ccc(O)cc12` [Serotonine]: the “transient rise in intracellular calcium concentration” value in the assay on HC e/n XV.B cells (setting [4]), in the assay on HNMMCV11.2.0, in the assay on HNMMCV13.1.E, in the assay with HNMMCV13.1.F and in the assay with HNMMCV14.1.A [1] was “did not lead to a specific signal” each time.

As for `NC(C(=O)O)c1cc(O)no1` (stereo not shown) [ibotenate], in assay [3], the “effect on inositolphosphate accumulation” value is “concentration dependent increase” and the “maximum responses … compared with glutamate” value is recorded as “slightly weaker”.

In the case of `N[C@@]1(C(=O)O)CC[C@@H](C(=O)O)C1` [t-ACPD, 1S3R-aminocyclopentane-1,3-dicarboxylate], the “transient rise in intracellular calcium concentration” value with HC e/n XV.B cells (setting [5]) was “weak signals”; in the assay on HNMMCV11.2.0, “strong”; with HNMMCV13.1.E it was “strong”; in the assay with HNMMCV13.1.F, “strong”; with HNMMCV14.1.A [1], “strong”. Besides, the “maximum responses … compared with glutamate” value in assay [3] (HNMMCV14.1A cells) is “slightly weaker”. Besides, the “effect on inositolphosphate accumulation” value in assay [3] (setting [6]) was “concentration dependent increase”.
